Reference: PMC2936419, “Engineering of N. benthamiana L. plants for production of N-acetylgalactosamine-glycosylated proteins - towards development of a plant-based platform for production of protein therapeutics with mucin type O-glycosylation” (BMC Biotechnology, 2010)

Target: T1, human GalNAc-T2 (Homo sapiens, UniProt Q10471)
T1 construct: gene GALNT2; full coding region, untagged (pH7WG2:GNT2), stably expressed in Nicotiana benthamiana; microsomal fraction; ~65 kDa
Assay: GalNAc transfer to hCG-beta peptide; RP-HPLC, MALDI-TOF MS, radioactive assay
Assay type: biochemical
Details: donor with acceptor hCG-beta peptide 113-136 (500 ug in 100 ul); 10 mM MnCl2, 25 mM Tris HCl pH 7.4, 0.25% Triton X-100, 37 C; microsomes; control-plant microsomes as negative control; also 3H-labelle

T1 sequence (Q10471 whole entry): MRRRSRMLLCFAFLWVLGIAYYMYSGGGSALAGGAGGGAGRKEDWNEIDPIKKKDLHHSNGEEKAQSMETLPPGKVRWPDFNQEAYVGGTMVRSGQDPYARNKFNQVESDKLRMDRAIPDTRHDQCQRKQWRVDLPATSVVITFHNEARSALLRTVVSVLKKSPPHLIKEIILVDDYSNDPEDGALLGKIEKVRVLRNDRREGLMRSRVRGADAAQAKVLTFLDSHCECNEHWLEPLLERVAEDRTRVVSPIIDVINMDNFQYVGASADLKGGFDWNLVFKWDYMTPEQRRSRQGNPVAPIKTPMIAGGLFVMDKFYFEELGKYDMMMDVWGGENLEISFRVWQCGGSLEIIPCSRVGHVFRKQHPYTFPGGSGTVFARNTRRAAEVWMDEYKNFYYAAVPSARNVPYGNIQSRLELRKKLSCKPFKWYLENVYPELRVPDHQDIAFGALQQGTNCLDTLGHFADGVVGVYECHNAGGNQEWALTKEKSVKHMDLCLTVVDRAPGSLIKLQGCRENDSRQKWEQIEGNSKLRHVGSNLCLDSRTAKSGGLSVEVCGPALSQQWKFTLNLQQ

Q: Which “GalNAc transfer to hCG-beta peptide; RP-HPLC, MALDI-TOF MS, radioactive assay” value does the source give for `CC(=O)N[C@H]1[C@@H](OP(=O)(O)OP(=O)(O)OC[C@H]2O[C@@H](n3ccc(=O)[nH]c3=O)[C@H](O)[C@@H]2O)O[C@H](CO)[C@H](O)[C@@H]1O` [UDP-GalNAc] here?
A: The value was “plant microsomal fraction as an enzyme source, UDP-GalNAc as the donor”.
